Data reported in US7012127B1, “Analogues of lipopolysaccharide-binding protein (LBP)-derived peptides that efficiently neutralize lipopolysaccharides (LPS)” (Centro de Ingenicria Genetica y Biotecnologia, priority 1999, dated 2006).

How the values were obtained:
[1] = test system: interaction between hLBP and E. coli LPS; test: ELISA: binding of biotinylated-LPS to surface-captured human LBP in the presence of peptides; settings: LPS and peptide incubated 2 h at room temperature; fixed quantities of peptide
From the text: This example describes the capacity of preferred peptides of the invention to block the interaction between LBP and E. coli LPS. An ELISA was used to determine the binding of biotinylated-LPS to surface-captured human LBP, in the presence or absence of fixed quantities of the selected peptides. LPS was biotinylated according to standard procedures. Human LBP (hLBP) was captured by using a specific monoclonal antibody, purified by affinity chromatography. Mixtures of LPS and each peptide were incubated during 2 h at room temperature, and then 100 μL were added to hLBP-containing wells. The binding of biotinylated-LPS to hLBP was detected with horseradish peroxidase-conjugated streptavidin. The assay was developed by adding a chromogenic substrate. […] Each experiment recorded the interaction of hLBP and biotinylated-LPS in absence of peptides, in presence of LBP86-99, and in the example presented in FIG. 2 the effect of a non-related cationic peptide (C5,3).
Human LBP was captured to the plates using a specific monoclonal antibody. Binding of biotinylated-LPS was detected with an streptavidin-horseradish peroxidase conjugate. The extent to which the peptide LBP86-99 (LBP) inhibits this interaction is also shown.
The experimental conditions were similar to those described in FIG. 1. The effect of a non-related cationic peptide, C5,3 is also included.

[2] = test system: LPS-induced human peripheral blood mononuclear cells (PBMC); test: Release of TNF by LPS-induced human PBMC; type: cell-based; settings: E. coli 0111:B4 LPS incubated with peptide 2 h at 37° C.; human LBP 200 ng/mL; TNFα in supernatants after 18 h; average of three experiments
Protocol: In order to determine if the peptides of the present invention were able to neutralize LPS-mediated responses, their ability to reduce the release of TNF by LPS-activated human peripheral blood cells was estimated. This assay evaluates the release of TNF by LPS-induced human peripheral blood mononuclear cells (PBMC), using concentrations of LPS commonly found in septic patients. LPS was incubated with fixed concentrations of each peptide during 2 h at 37° C. and the mixtures were then added to PBMC. The culture medium was supplemented with human LBP (200 ng/mL) and plates were incubated at 37° C. in a 5% CO2 atmosphere. TNFα was measured in culture supernatants after 18 h using a human TNF-α specific ELISA. FIG. 4 represents the average results from three different experiments. […] LBPA95 and LBPA96. […] Similar results were observed when other concentrations of LPS (2 or 10 ng/mL) and hLBP (20 or 100 ng/mL) were used.
The effects on this assay of LBP86-99 (LBP), LBPA91, B6,1 and polymyxin B (PMB) are also shown.

[3] = test system: LPS-stimulated human PBMC; test: LPS-induced IL-6 production in cultures of human PBMC; type: cell-based; settings: at every hLBP concentrations tested
Protocol: In order to determine if the peptides of the present invention were able to neutralize LPS-mediated responses, their ability to reduce the release of TNF by LPS-activated human peripheral blood cells was estimated. This assay evaluates the release of TNF by LPS-induced human peripheral blood mononuclear cells (PBMC), using concentrations of LPS commonly found in septic patients. LPS was incubated with fixed concentrations of each peptide during 2 h at 37° C. and the mixtures were then added to PBMC. The culture medium was supplemented with human LBP (200 ng/mL) and plates were incubated at 37° C. in a 5% CO2 atmosphere. TNFα was measured in culture supernatants after 18 h using a human TNF-α specific ELISA. […]
This invention provides peptides with advantageous functions over other LBP-derived peptides that have the native sequence or different a.a. replacements to those herein described at positions +1, +5, +6, +7, +9, +10, +11, +12 and +13. […] IL-6 was measured in culture supernatants after 18 h using a human IL-6 specific ELISA. In the represented experiment, the following peptides were evaluated; LPB86-99, LBP-H (LBP86-101, SEQ ID NO. 56)^13, LBPA94, LBPA95, and LBPA98. […]
Results are expressed as % inhibition of IL-6 release compared with the cytokine production in the absence of peptides The effects on this assay of LBP86-99, (LBP), LBP-H and B6,1 are also shown.

[4] = test system: E. coli LPS lethal challenge in BALB/c mice; test: Endotoxin shock model in Actinomycin D-sensitized mice, survival; type: in vivo; settings: Actinomycin D 7.5 μg i.p., E. coli LPS 1 μg/mouse mixed with peptide (1 h, 37° C.), equimolar doses, survival over 120 h, p<0.05 vs. vehicle or B6,1
Protocol: An endotoxin shock animal model was used to determine if the peptides of this invention were able to block complex physiological responses triggered by LPS. In this model mice were sensitized with Actinomycin D to increase LPS-mediated toxic responses. With this purpose, Actinomycin D (7.5 μg) was administered i.p. to 6 to 8 weeks-old female mice. Simultaneously each mice received LPS, and survival was evaluated every 24 h during 120 h.
The effect of peptides of the present invention on mice survival was assessed by administering E. coli LPS (1 μg/mouse in saline vehicle) or LPS:peptide mixtures mixtures (previously incubated during 1 h at 37° C.) to BALB/c sensitized mice. FIG. 6 represents the results of a representative experiment where the following peptides were each administered at equimolar doses to groups of 20 mice: LBP86-99, LBPA94, LBPAs95, LBPA98 or B6, 1 (cationic, non-related peptide). […] The aforementioned in vivo neutralizing property of the peptides of the invention is relevant for their application in prophylactic or therapeutic methods for sepsis and other associated disorders.
Survival in groups of BALB/c mice treated with LBP86-99 (LBP) and B6,1 is also shown. Mice survival was recorded each 24 h during 120 h.

## LBPA95: LBP 86-99 peptide analogue, SEQ ID No.5, essential a.a. at position +10 (RVQGRWKVRASFFK)
[1]
  interaction between hLBP and E. coli LPS (binding of biotinylated-LPS to captured hLBP): notably impaired
[2]
  LPS-stimulated TNF release by human PBMC: Reduced levels of cytokine release
[3]
  reduction of the LPS-triggered response (IL-6): more than 70%
[4]
  mice survival: significantly increased

## LBPA97: peptide with a residue at +6, +7 or +12 distinct from those of the invention, SEQ ID No.54 (RVQGRWKVRKSAFK)
[1]
  interaction between hLBP and E. coli LPS (binding of biotinylated-LPS to captured hLBP): not affected

## LBPA91: peptide which has tryptophan residue at position (6) replaced with alanine, SEQ ID No.55 (RVQGRAKVRKSFFK)
[1]
  interaction between hLBP and E. coli LPS (binding of biotinylated-LPS to captured hLBP): not affected
[2]
  LPS-stimulated TNF release by human PBMC: did not inhibit

## LBPA94: LBP 86-99 peptide analogue, SEQ ID No.4, essential a.a. at position +9 (RVQGRWKVAKSFFK)
[1]
  interaction between hLBP and E. coli LPS (binding of biotinylated-LPS to captured hLBP): notably impaired
[2]
  LPS-stimulated TNF release by human PBMC: Reduced levels of cytokine release
[4]
  mice survival: significantly increased

## LBPA92: peptide with a residue at +6, +7 or +12 distinct from those of the invention, SEQ ID No.53 (RVQGRWAVRKSFFK)
[1]
  interaction between hLBP and E. coli LPS (binding of biotinylated-LPS to captured hLBP): not affected

## LBPA98: LBP 86-99 peptide analogue, SEQ ID No.7, essential a.a. at position +13 (RVQGRWKVRKSFAK)
[1]
  interaction between hLBP and E. coli LPS (binding of biotinylated-LPS to captured hLBP): notably impaired
[4]
  mice survival: significantly increased

## LBPA90: LBP 86-99 peptide analogue, SEQ ID No.3 (RVQGAWKVRKSFFK)
[1]
  interaction between hLBP and E. coli LPS (binding of biotinylated-LPS to captured hLBP): notably impaired

## LBPA86: LBP 86-99 peptide analogue, SEQ ID No.2 (AVQGRWKVRKSFFK)
[1]
  interaction between hLBP and E. coli LPS (binding of biotinylated-LPS to captured hLBP): notably impaired

## LBPA96: LBP 86-99 peptide analogue, SEQ ID No.6 (RVQGRWKVRKAFFK)
[1]
  interaction between hLBP and E. coli LPS (binding of biotinylated-LPS to captured hLBP): notably impaired
[2]
  LPS-stimulated TNF release by human PBMC: Reduced levels of cytokine release

## LBP86-99: peptide with the native sequence of the 86-99 a.a. region of human LBP mature protein (RVQGRWKVRKSFFK) [reference compound]
[2]
  LPS-stimulated TNF release by human PBMC: Reduced levels of cytokine release
[4]
  mice survival: only marginally
